Test results published in ChEMBL document CHEMBL3112589, “Structure-activity relationships of diamine inhibitors of cytochrome P450 (CYP) 3A as novel pharmacoenhancers, part I: core region” (Bioorg Med Chem Lett, 2014).

What was measured:
[1] = tested on: Human immunodeficiency virus 1; assay: Antiviral activity against HIV1 by cell based assay; type: functional, organism-based
Cytochrome P450 3A4 = Cytochrome P450 3A4 (Homo sapiens, UniProt P08684); assay: Inhibition of human CYP3A4-mediated midazolam 1'-hydroxylase activity
Protease = Protease (Human immunodeficiency virus 1, UniProt Q9YQ12); assay: Inhibition of HIV-1 protease
Cytochrome P450 2C9 = Cytochrome P450 2C9 (Homo sapiens, UniProt P11712); assay: Inhibition of human CYP2C9
Cytochrome P450 2D6 = Cytochrome P450 2D6 (Homo sapiens, UniProt P10635); assay: Inhibition of human CYP2D6
Cytochrome P450 2C19 = Cytochrome P450 2C19 (Homo sapiens, UniProt P33261); assay: Inhibition of human CYP2C19
Cytochrome P450 1A2 = biological target: T1, Cytochrome P450 1A2 (Homo sapiens, UniProt P05177); assay: Inhibition of human CYP1A2
T1 sequence (P05177 whole entry): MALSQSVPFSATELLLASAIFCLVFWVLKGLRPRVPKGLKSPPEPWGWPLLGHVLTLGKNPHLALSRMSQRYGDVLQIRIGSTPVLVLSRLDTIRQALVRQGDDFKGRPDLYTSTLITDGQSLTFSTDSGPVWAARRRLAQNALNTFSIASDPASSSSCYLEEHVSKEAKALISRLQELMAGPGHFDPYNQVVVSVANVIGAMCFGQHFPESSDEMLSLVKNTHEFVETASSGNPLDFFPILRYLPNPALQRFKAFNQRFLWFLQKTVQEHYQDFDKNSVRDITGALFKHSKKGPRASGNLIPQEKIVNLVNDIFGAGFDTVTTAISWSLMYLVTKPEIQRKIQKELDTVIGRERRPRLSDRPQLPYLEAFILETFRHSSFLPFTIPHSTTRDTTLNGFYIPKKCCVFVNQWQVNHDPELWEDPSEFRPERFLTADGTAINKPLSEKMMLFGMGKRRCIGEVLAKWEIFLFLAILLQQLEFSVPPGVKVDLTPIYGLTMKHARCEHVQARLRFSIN

Protease, sequence (Q9YQ12 whole entry): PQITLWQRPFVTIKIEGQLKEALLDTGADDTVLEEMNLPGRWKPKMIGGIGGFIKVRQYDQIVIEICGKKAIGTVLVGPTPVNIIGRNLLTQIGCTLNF
Cytochrome P450 2C19, sequence (P33261 whole entry): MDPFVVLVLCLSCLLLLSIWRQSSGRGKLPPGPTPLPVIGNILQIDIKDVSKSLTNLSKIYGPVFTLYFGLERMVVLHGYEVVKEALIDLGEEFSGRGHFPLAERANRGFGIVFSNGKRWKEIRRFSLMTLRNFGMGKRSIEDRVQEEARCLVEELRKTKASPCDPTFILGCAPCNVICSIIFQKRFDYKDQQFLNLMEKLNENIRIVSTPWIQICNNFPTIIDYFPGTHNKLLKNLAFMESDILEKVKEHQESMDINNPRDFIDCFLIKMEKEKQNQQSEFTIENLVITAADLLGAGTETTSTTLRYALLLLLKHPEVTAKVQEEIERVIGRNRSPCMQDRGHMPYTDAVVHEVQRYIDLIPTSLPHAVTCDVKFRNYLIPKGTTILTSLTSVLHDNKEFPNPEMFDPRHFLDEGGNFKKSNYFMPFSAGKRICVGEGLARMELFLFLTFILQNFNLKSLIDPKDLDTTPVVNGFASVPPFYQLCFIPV
Cytochrome P450 2C9, sequence (P11712 whole entry): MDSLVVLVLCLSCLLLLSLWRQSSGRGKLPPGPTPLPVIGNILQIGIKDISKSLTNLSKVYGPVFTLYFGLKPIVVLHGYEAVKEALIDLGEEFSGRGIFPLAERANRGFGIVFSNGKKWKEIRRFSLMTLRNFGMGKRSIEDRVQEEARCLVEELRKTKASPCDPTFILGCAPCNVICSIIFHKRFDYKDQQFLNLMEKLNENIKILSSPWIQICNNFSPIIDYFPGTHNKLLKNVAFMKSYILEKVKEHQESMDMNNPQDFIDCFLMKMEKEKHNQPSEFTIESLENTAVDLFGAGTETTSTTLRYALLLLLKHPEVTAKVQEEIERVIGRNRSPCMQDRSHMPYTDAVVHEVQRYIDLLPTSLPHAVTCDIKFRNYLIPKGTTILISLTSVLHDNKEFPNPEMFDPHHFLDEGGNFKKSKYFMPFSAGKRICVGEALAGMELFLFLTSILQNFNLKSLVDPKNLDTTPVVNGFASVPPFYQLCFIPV
Cytochrome P450 2D6, sequence (P10635 whole entry): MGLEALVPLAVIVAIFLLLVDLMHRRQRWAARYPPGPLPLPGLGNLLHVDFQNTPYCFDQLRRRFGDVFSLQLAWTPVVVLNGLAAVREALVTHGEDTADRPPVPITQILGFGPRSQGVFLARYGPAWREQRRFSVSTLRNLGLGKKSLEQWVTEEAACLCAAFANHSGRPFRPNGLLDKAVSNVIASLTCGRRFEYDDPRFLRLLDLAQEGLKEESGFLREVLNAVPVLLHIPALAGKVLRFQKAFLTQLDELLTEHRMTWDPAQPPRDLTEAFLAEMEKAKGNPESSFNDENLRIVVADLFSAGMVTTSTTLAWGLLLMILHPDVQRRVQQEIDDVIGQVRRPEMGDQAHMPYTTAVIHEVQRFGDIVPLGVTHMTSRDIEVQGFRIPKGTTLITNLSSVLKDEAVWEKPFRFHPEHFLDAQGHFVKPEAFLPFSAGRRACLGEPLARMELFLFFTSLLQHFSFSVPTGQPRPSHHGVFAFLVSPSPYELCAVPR
Cytochrome P450 3A4, sequence (P08684 whole entry): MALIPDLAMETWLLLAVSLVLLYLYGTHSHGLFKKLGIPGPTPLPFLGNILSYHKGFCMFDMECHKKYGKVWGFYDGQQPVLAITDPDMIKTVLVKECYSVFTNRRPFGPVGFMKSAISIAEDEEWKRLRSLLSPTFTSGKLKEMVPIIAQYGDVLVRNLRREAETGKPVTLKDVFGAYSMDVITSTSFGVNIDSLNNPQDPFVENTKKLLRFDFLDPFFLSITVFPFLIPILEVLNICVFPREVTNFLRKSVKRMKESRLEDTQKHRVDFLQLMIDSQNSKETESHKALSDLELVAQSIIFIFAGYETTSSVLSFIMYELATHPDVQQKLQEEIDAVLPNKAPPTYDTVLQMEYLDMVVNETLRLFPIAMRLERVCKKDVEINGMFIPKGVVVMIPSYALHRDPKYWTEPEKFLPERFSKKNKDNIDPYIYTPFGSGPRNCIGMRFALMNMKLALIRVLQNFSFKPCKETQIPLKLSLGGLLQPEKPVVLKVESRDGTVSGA

EC50 [1]	IC50 (Cytochrome P450 3A4)	IC50 (Protease)	IC50 (Cytochrome P450 2C9)	IC50 (Cytochrome P450 2D6)	IC50 (Cytochrome P450 2C19)	IC50 (Cytochrome P450 1A2)	SMILES
1.65 µM							CC(C)c1nc(CN(C)C(=O)N[C@H](C(=O)N[C@H](CC(=O)[C@H](Cc2ccccc2)NC(=O)OCc2cncs2)Cc2ccccc2)C(C)C)cs1
11 µM	0.15 µM						CC(C)c1nc(CN(C)C(=O)N[C@H](C(=O)N[C@H](/C=C/[C@H](Cc2ccccc2)NC(=O)OCc2cncs2)Cc2ccccc2)C(C)C)cs1
0.87 µM							CC(C)c1nc(CN(C)C(=O)N[C@H](C(=O)N[C@H](CC[C@H](Cc2ccccc2)N(C)C(=O)OCc2cncs2)Cc2ccccc2)C(C)C)cs1
1.7 µM							CCC[C@@H](CC[C@H](Cc1ccccc1)NC(=O)[C@@H](NC(=O)N(C)Cc1csc(C(C)C)n1)C(C)C)NC(=O)OCc1cncs1
> 30 µM		> 30 µM					CC(C)c1nc(CN(C)C(=O)N[C@H](C(=O)N[C@@H](C)CC[C@H](C)NC(=O)OCc2cncs2)C(C)C)cs1
> 30 µM	0.24 µM	22.7 µM	3.4 µM	1.1 µM	1.5 µM	> 25 µM	CC(C)c1nc(CN(C)C(=O)N[C@H](C(=O)N(CCCCN(Cc2ccccc2)C(=O)OCc2cncs2)Cc2ccccc2)C(C)C)cs1
> 30 µM							CC(C)c1nc(CN(C)C(=O)N[C@H](C(=O)NCCCNC(=O)OCc2cncs2)C(C)C)cs1
4 µM							CC(C)c1nc(CN(C)C(=O)N[C@H](C(=O)N2CCC(NC(=O)OCc3cncs3)CC2)C(C)C)cs1
> 30 µM		> 30 µM					CC(C)c1nc(CN(C)C(=O)N[C@@H](CCN2CCOCC2)C(=O)N[C@H](CCN(Cc2ccc(Cl)cc2)C(=O)OCc2cncs2)Cc2ccccc2)cs1
> 30 µM		> 30 µM					CC(C)CN(CC[C@H](Cc1ccccc1)NC(=O)[C@H](CCN1CCOCC1)NC(=O)N(C)Cc1csc(C(C)C)n1)C(=O)OCc1cncs1
> 30 µM		> 30 µM	> 25 µM	8.1 µM	> 25 µM	> 25 µM	CC(C)CN(CC[C@H](Cc1ccccc1)NC(=O)OCc1cncs1)C(=O)[C@H](CCN1CCOCC1)NC(=O)N(C)Cc1csc(C(C)C)n1
> 30 µM							CC(C)c1nc(CN(C)C(=O)N[C@H](C(=O)NCCNC(=O)OCc2cncs2)C(C)C)cs1
> 30 µM	1.4 µM						CC(C)c1nc(CN(C)C(=O)N[C@H](C(=O)N2CCN(C(=O)OCc3cncs3)CC2)C(C)C)cs1
0.73 µM							CC(C)c1nc(CN(C)C(=O)N[C@H](C(=O)N(C)[C@H](CC[C@H](Cc2ccccc2)NC(=O)OCc2cncs2)Cc2ccccc2)C(C)C)cs1
0.015 µM							CC(C)c1nc(CN(C)C(=O)N[C@H](C(=O)N[C@@H](Cc2ccccc2)C[C@H](O)[C@H](Cc2ccccc2)NC(=O)OCc2cncs2)C(C)C)cs1 [RITONAVIR]

The remaining lines, values behind:

SMILES	EC50 [1]	IC50 (Cytochrome P450 3A4)	IC50 (Protease)	IC50 (Cytochrome P450 2C9)	IC50 (Cytochrome P450 2D6)	IC50 (Cytochrome P450 2C19)	IC50 (Cytochrome P450 1A2)
CC(C)c1nc(CN(C)C(=O)N[C@H](C(=O)NC2CCN(C(=O)OCc3cncs3)CC2)C(C)C)cs1	9 µM	1.67 µM					
CC(C)c1nc(CN(C)C(=O)N[C@H](C(=O)N[C@H](CC[C@H](Cc2ccccc2)NC(=O)OCc2cncs2)Cc2ccccc2)C(C)C)cs1	0.29 µM		0.005 µM	6.8 µM	2.9 µM	9.3 µM	> 25 µM
CCC[C@@H](CC[C@H](Cc1ccccc1)NC(=O)OCc1cncs1)NC(=O)[C@@H](NC(=O)N(C)Cc1csc(C(C)C)n1)C(C)C	0.55 µM						
CC[C@@H](CC[C@H](CC)NC(=O)[C@@H](NC(=O)N(C)Cc1csc(C(C)C)n1)C(C)C)NC(=O)OCc1cncs1	> 30 µM		> 30 µM				
CC(C)c1nc(CN(C)C(=O)N[C@H](C(=O)N[C@@H](Cc2ccccc2)[C@H]2OC(C)(C)O[C@@H]2[C@H](Cc2ccccc2)NC(=O)OCc2cncs2)C(C)C)cs1	> 30 µM	0.31 µM					
CC(C)c1nc(CN(C)C(=O)N[C@H](C(=O)N[C@@H](CC[C@@H](Cc2ccccc2)NC(=O)OCc2cncs2)Cc2ccccc2)C(C)C)cs1	> 30 µM		> 30 µM	13.8 µM	0.4 µM	> 5 µM	10 µM
CC(C)c1nc(CN(C)C(=O)N[C@H](C(=O)NCCCCNC(=O)OCc2cncs2)C(C)C)cs1	> 30 µM						
CC(C)c1nc(CN(C)C(=O)N[C@H](C(=O)N[C@H](CCNNC(=O)OCc2cncs2)Cc2ccccc2)C(C)C)cs1	> 30 µM		8.8 µM				
CC(C)c1nc(CN(C)C(=O)N[C@H](C(=O)N[C@H](CCN(Cc2ccccc2)NC(=O)OCc2cncs2)Cc2ccccc2)C(C)C)cs1	0.38 µM		0.03 µM				
CC(C)c1nc(CN(C)C(=O)N[C@H](C(=O)N(CCCN(Cc2ccccc2)C(=O)OCc2cncs2)Cc2ccccc2)C(C)C)cs1	> 30 µM	0.3 µM	21 µM				
CC(C)c1nc(CN(C)C(=O)N[C@H](C(=O)N[C@H](CCN(Cc2ccccc2)C(=O)OCc2cncs2)Cc2ccccc2)C(C)C)cs1	> 30 µM	0.32 µM		> 25 µM	0.9 µM	> 25 µM	> 25 µM
CC(C)c1nc(CN(C)C(=O)N[C@@H](CCN2CCOCC2)C(=O)N[C@H](CCN(Cc2ccccc2)C(=O)OCc2cncs2)Cc2ccccc2)cs1	> 30 µM		> 30 µM	8.1 µM	1.3 µM	6.7 µM	> 25 µM
CC(C)c1nc(CN(C)C(=O)N[C@@H](CCN2CCOCC2)C(=O)N[C@H](CCN(Cc2ccccc2Cl)C(=O)OCc2cncs2)Cc2ccccc2)cs1	> 30 µM		> 30 µM				
CC(C)c1nc(CN(C)C(=O)N[C@H](C(=O)N[C@@H](Cc2ccccc2)[C@H](Cc2ccccc2)NC(=O)OCc2cncs2)C(C)C)cs1	> 30 µM		> 30 µM	> 25 µM	2.3 µM	8.7 µM	22.9 µM
CC(C)c1nc(CN(C)C(=O)N[C@@H](CCN2CCOCC2)C(=O)NC(Cc2ccccc2)CN(Cc2ccccc2)C(=O)OCc2cncs2)cs1 (stereo not given in full)	> 30 µM		> 30 µM				
